Assay results reported in ChEMBL document CHEMBL5465560, “Selectivity Literature for EUbOPEN Chemogenomic Library” (2024).

Key:
[1] = target: Sigma intracellular receptor 2 (Homo sapiens) (UniProt Q5BJF2); experiment: Selectivity interaction (GPCR panel (PDSP screen)) EUB0000311b TMEM97; conditions: at 10 µM
[2] = target: T1, MAP/microtubule affinity-regulating kinase 4 (Homo sapiens) (UniProt Q96L34); experiment: Selectivity interaction (KinomeScan (DiscoverX)) EUB0000595a MARK4; conditions: at 10 µM
T1 sequence (whole entry): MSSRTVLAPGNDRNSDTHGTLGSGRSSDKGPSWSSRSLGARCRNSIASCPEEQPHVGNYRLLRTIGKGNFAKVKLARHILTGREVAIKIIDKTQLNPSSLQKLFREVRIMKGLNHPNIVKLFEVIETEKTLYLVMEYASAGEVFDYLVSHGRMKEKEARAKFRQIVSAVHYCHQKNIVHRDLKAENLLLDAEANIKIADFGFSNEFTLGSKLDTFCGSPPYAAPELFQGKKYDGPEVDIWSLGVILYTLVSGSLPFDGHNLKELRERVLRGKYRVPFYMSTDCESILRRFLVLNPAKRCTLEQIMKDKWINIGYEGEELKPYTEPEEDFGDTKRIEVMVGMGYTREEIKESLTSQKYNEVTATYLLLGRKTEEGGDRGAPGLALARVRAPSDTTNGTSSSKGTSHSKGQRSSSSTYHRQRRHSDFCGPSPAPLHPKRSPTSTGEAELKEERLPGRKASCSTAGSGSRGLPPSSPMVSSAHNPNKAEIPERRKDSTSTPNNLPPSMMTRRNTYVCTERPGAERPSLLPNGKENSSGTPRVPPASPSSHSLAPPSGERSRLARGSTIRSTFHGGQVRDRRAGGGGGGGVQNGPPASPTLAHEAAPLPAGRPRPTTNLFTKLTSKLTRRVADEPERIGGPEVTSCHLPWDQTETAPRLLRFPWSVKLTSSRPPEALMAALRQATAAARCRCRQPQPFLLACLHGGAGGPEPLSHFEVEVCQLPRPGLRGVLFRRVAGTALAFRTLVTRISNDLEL

[3] = target: BDNF/NT-3 growth factors receptor (Homo sapiens) (UniProt Q16620); experiment: Selectivity interaction (KinomeScan (DiscoverX)) EUB0001079a NTRK2; conditions: at 1 µM
BDNF/NT-3 growth factors receptor (Homo sapiens), sequence (Q16620 32-822 limits assumed): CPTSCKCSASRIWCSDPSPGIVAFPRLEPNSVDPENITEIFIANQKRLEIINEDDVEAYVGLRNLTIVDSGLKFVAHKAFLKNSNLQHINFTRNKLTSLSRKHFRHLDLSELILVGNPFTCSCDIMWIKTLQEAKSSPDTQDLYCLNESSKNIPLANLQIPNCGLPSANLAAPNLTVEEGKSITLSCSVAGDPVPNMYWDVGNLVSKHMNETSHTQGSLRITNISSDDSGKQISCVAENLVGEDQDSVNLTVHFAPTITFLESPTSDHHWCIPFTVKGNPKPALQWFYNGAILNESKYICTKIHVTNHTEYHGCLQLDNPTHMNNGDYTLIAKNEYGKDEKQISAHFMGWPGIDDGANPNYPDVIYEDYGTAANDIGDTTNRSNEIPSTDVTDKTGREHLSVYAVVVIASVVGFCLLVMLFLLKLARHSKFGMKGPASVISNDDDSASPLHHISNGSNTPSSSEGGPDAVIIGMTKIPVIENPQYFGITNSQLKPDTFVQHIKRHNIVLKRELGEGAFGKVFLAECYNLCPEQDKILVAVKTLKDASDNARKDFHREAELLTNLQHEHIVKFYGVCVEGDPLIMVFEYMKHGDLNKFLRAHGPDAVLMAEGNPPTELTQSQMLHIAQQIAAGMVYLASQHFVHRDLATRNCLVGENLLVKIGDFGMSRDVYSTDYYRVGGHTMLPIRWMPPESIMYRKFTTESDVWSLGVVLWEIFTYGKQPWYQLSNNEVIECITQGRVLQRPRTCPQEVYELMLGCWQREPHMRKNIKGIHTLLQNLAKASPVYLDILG

[4] = target: Ribosomal protein S6 kinase alpha-1 (Homo sapiens, UniProt Q15418); experiment: Selectivity interaction (KinomeScan (DiscoverX)) EUB0001049a RPS6KA1; conditions: at 1 µM
Ribosomal protein S6 kinase alpha-1, sequence (Q15418 whole entry): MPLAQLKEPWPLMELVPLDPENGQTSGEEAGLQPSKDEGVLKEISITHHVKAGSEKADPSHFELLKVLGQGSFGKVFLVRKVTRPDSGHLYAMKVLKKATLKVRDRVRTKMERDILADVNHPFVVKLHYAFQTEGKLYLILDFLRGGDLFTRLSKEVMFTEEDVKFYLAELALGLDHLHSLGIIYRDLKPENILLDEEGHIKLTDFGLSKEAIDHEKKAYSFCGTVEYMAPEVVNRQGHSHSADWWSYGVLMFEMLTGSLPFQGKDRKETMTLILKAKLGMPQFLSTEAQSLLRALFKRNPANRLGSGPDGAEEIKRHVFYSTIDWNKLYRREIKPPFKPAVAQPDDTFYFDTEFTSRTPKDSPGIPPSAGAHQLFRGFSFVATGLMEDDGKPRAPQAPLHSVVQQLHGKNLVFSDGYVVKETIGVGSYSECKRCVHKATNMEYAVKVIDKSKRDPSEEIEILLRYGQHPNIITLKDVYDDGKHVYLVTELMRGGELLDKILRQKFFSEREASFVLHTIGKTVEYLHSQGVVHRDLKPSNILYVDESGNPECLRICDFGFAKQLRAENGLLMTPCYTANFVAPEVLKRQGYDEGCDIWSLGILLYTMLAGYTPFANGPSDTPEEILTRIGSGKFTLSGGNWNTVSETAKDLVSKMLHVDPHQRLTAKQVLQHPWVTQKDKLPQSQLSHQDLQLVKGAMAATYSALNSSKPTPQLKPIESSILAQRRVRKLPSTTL

[5] = target: Ribosomal protein S6 kinase alpha-3 (Homo sapiens, UniProt P51812); experiment: Selectivity interaction (KinomeScan (DiscoverX)) EUB0000607a RPS6KA3; conditions: at 10 µM
Ribosomal protein S6 kinase alpha-3, sequence (P51812 whole entry): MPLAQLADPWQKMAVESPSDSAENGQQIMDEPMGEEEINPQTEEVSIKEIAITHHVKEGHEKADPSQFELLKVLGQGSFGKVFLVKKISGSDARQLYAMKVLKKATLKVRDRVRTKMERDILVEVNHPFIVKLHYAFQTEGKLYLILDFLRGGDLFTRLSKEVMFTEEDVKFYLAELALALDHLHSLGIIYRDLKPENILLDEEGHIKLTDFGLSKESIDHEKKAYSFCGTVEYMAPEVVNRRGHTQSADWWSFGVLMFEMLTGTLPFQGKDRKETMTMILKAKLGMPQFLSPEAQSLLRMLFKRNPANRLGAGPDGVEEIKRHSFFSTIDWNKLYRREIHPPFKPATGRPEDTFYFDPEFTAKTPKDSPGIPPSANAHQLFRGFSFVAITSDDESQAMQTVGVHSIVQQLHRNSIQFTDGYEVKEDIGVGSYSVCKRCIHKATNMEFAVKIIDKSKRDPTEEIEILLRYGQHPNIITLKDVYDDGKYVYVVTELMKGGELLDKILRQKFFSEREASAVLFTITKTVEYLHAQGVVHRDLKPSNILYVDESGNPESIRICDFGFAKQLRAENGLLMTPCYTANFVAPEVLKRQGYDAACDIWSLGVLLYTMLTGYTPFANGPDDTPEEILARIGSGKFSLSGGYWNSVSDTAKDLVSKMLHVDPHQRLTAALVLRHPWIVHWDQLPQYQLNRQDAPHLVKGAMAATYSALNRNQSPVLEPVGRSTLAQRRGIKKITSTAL

[6] = target: T2, Cyclin-dependent kinase-like 2 (Homo sapiens) (UniProt Q92772); experiment: Selectivity interaction (KinomeScan (DiscoverX)) EUB0000607a CDKL2; conditions: at 10 µM
T2 sequence (whole entry): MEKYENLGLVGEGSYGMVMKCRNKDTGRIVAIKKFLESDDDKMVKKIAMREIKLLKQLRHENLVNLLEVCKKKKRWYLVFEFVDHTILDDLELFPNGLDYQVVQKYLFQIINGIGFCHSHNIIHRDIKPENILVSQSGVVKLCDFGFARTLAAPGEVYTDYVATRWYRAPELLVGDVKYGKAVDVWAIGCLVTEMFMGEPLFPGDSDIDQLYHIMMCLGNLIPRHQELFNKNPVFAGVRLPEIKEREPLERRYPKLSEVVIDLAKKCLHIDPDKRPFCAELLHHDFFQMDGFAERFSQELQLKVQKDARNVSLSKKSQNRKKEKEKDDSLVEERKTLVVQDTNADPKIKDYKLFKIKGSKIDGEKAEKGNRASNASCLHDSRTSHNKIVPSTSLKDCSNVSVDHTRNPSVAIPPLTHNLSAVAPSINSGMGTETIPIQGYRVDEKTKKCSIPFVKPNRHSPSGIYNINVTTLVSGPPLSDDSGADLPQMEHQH

[7] = target: Mitogen-activated protein kinase 10 (Homo sapiens, UniProt P53779); experiment: Selectivity interaction (SelectScreen profiling (Invitrogen)) EUB0000607a MAPK10; conditions: at 2 µM
Mitogen-activated protein kinase 10, sequence (P53779 whole entry): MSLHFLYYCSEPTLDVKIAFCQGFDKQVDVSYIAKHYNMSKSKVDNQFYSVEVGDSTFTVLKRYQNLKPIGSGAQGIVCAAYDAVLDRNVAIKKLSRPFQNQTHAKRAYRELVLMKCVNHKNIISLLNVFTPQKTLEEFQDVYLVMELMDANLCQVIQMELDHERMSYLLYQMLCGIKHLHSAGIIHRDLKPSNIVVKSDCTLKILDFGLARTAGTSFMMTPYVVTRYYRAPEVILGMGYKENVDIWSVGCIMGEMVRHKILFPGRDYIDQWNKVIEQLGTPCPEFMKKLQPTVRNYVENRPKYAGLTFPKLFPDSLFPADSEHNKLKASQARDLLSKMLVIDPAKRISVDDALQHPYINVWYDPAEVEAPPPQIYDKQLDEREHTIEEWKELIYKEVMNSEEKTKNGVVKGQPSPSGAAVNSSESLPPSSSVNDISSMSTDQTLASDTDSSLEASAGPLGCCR

[8] = target: T3, Serine/threonine-protein kinase Nek8 (Homo sapiens) (UniProt Q86SG6); experiment: Selectivity interaction (ActivX KiNativ screen (kinase selectivity in THP-1 cell lysates)) EUB0000639a NEK8; assay type: subcellular; conditions: lysate
T3 sequence (whole entry): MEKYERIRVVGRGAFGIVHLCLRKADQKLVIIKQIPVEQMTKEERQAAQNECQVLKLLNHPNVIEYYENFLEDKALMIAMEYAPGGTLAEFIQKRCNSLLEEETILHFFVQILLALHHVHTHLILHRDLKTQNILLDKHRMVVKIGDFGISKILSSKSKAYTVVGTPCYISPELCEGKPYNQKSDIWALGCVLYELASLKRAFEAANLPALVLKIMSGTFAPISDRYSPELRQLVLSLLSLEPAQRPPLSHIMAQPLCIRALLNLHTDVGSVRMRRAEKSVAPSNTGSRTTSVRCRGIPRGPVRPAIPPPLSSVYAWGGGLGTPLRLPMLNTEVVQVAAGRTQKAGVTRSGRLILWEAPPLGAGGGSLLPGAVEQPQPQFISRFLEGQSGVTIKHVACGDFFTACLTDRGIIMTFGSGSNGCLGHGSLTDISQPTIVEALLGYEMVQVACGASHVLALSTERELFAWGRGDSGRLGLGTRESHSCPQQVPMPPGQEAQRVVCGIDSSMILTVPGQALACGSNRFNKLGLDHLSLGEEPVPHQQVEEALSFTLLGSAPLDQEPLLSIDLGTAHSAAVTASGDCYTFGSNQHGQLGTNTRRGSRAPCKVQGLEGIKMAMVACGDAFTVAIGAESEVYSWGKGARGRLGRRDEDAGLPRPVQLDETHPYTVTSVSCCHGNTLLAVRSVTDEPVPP

[9] = target: Serine/threonine-protein kinase PLK1 (Homo sapiens, UniProt P53350); experiment: Selectivity interaction (KinomeScan (DiscoverX)) EUB0000092b PLK1; conditions: at 10 µM
Serine/threonine-protein kinase PLK1, sequence (P53350 whole entry): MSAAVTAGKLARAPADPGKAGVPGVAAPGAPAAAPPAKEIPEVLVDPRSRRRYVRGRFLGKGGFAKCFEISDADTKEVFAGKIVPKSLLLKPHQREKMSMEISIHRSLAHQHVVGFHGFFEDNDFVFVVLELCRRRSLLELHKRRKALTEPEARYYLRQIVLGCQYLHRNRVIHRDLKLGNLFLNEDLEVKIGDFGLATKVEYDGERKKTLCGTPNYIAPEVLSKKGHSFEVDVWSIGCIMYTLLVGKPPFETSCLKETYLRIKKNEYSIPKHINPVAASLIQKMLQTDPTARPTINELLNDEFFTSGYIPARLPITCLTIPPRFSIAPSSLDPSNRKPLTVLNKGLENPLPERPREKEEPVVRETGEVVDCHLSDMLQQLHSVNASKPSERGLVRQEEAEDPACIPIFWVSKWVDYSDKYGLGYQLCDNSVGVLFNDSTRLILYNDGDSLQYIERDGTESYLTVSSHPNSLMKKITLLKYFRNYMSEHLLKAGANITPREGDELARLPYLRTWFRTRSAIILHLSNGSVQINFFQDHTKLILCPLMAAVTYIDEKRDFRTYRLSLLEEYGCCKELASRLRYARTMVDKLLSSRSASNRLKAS

[10] = target: Ribosomal protein S6 kinase alpha-2 (Homo sapiens) (UniProt Q15349); experiment: Selectivity interaction (Ambit KINOMEscan and KiNATiv profiling in Jurkat cells) EUB0000090b RPS6KA2; assay type: cell-based; conditions: at 1 µM
Ribosomal protein S6 kinase alpha-2 (Homo sapiens), sequence (Q15349 whole entry): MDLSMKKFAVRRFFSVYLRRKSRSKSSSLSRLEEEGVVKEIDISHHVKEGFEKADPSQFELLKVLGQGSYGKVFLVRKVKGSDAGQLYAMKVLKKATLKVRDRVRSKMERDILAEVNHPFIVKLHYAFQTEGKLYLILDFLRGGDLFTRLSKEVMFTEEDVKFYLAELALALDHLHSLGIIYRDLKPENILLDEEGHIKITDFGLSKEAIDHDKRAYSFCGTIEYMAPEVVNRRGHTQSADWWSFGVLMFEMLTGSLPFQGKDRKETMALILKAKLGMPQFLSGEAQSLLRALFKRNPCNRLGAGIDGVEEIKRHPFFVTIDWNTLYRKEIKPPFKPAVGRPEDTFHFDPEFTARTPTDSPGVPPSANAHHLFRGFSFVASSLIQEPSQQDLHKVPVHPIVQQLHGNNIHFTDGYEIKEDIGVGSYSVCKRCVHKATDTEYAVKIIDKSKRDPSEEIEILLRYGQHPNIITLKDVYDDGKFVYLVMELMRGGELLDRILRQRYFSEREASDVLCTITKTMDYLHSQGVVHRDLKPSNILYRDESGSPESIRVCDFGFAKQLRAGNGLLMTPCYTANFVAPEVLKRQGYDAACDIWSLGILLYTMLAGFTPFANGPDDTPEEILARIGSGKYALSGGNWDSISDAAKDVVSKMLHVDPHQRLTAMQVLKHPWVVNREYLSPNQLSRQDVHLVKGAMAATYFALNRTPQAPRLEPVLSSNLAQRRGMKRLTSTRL

[11] = target: Protein-tyrosine kinase 6 (Homo sapiens, UniProt Q13882); experiment: Selectivity interaction (Ambit KINOMEscan and KiNATiv profiling in Jurkat cells) EUB0000090b PTK6; assay type: cell-based; conditions: at 1 µM
Protein-tyrosine kinase 6, sequence (Q13882 whole entry, looked up): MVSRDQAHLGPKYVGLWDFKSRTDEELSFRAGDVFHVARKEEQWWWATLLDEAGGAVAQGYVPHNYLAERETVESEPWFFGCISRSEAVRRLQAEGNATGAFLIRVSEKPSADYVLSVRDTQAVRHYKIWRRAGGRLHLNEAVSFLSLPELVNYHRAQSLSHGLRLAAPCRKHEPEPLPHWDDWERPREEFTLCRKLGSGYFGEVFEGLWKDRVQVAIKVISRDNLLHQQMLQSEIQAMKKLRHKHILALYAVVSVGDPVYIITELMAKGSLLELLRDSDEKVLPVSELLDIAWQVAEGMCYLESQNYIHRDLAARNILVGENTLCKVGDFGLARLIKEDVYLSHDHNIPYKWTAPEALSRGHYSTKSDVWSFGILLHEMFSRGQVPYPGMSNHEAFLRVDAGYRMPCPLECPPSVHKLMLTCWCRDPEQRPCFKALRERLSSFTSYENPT

Sigma intracellular receptor 2 (Homo sapiens), sequence (Q5BJF2 whole entry): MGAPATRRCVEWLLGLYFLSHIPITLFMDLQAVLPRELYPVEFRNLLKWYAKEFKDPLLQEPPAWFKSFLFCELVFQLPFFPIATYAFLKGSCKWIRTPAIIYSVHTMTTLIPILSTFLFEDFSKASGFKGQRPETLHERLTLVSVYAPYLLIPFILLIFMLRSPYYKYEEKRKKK

CCc1ccccc1C(=O)Nc1n[nH]c2c(C)c(F)c(C3C(C#N)=C(C)N(C)C(C)=C3C#N)cc12 [BAY-3827]
% of inhibition [1]: 78.3%

COCC(=O)NC/C=C/c1ccc2ncnc(Nc3ccc(Oc4ccc(C)nc4)c(C)c3)c2c1 [CP-724714]
% of control [2]: 100%

Nc1cnc(N2CCc3cc(S(=O)(=O)Nc4c(F)cc(Cl)cc4F)cc(N4CCCC4=O)c32)nc1 [TP-020n]
% of control [3]: 100%

COc1cc(Nc2nc(C)cc(-c3cnn4nc(OC)ccc34)n2)cc(C(F)(F)F)c1
% of control [4]: 88%

CNC(=O)Nc1ccc(-c2nc(N3CC4CCC(C3)O4)c3cnn(C4CCC5(CC4)OCCO5)c3n2)cc1
% of control [5]: 100% | % of control [6]: 100% | % of inhibition [7]: 14%

CC[C@@H]1[C@H](F)C(=O)N[C@@H]1COc1nccc2cc(C(N)=O)c(OC)cc12 [ZIMLOVISERTIB]
% of inhibition ([8]; at 0.01 µM): -12.6% | % of inhibition ([8]; at 0.04 µM): 9.8% | % of inhibition ([8]; at 0.2 µM): -2.6% | % of inhibition ([8]; at 1 µM): 3.4% | % of inhibition ([8]; at 5 µM): -20.5%

CCC(=O)N1CCN(c2ccc(-n3c(=O)ccc4cnc5ccc(-c6cnc7ccccc7c6)cc5c43)cc2C(F)(F)F)CC1
% of control [9]: 85%

CN(C)C/C=C/C(=O)Nc1ccc(C(=O)N2CCCC(Nc3ncc(Cl)c(-c4c[nH]c5ccccc45)n3)C2)cc1 (stereo not given)
% of control [10]: 88% | % of control [11]: 84%
